9 compounds from patent publication US20180116993A1, “MODULATORS OF FARNESOID X RECEPTOR AND METHODS FOR THE USE THEREOF” (XIAMEN UNIVERSITY, priority 2015, published 2018) can be followed below.

The test system of assay [1] is human hepatoma HepG2 cells. As to the kind of experiment: MTT cell viability assay, HepG2. The format is cell-based. Particulars: 48 h, read-out: Cell viability as a percentage of the cells treated with DMSO, HepG2. From the text:
(§1) The MTT assay is a colorimetric assay for assessing cell metabolic activity. It is widely used in high-throughput screening of antitumor drugs due to its high sensitivity and economical features. In this example, MTT was used to detect the inhibitory effects of compounds on various cancer cell lines. Cancer cells including human colorectal adenocarcinoma HCT15 cells, RA-resistant human colon cancer HCT116 cells, human cervical carcinoma Hela cells, human hepatoma HepG2 cells and human breast cancer MCF7 cells were cultured in DMEM medium containing 10% fetal bovine serum. 20 uM or 40 uM of compounds were administered to treat cells, cell viability is detected by MTT assay and expressed as a percentage of the cells treated with DMSO (Table 4).

Assay [2] has as its system RA-resistant human colon cancer HCT116 cells. Put plainly: MTT cell viability assay, HCT116. Type of assay: cell-based. Particulars: 48 h, read-out: Cell viability as a percentage of the cells treated with DMSO, HCT116; for viability at 20 µM: HCT-116, 20 uM; for viability at 40 µM: HCT-116, 40 uM.
From the text: as §1

Assay [3] relates to human colorectal adenocarcinoma HCT15 cells. As to the kind of experiment: MTT cell viability assay, HCT15. Particulars: 48 h, read-out: Cell viability as a percentage of the cells treated with DMSO, HCT15; for viability at 20 µM: HCT-15, 20 uM; for viability at 40 µM: HCT-15, 40 uM. The format is cell-based.
From the text: as §1

The target in the next assay is T1, full-length FXR (Homo sapiens, UniProt Q96RI1).
T1 construct: The cells were co-transfected with plasmids encoding full-length FXR and the cognate luciferase reporter EcRE-Luc; expressed in transfected cells; host or cells: COS-7
T1 sequence (Q96RI1 1-486): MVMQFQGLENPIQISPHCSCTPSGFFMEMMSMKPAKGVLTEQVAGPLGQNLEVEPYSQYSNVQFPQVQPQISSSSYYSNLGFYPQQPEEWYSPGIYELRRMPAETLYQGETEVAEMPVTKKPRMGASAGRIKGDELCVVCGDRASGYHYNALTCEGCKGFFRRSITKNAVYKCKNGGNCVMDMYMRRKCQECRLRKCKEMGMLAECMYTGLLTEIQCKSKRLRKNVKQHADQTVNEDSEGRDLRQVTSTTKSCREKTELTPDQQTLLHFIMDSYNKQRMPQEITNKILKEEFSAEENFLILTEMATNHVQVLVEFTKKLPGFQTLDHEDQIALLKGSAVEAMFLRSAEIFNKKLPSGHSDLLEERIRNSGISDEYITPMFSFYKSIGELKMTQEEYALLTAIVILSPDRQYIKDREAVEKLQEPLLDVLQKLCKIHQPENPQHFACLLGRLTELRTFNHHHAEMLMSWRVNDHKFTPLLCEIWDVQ
Put plainly: Cell-based FXR transactivation, EcRE luciferase reporter in COS-7 cells. Particulars: for Cell-based FXR transactivation Fold changes by 5 μM compound: positive: induction, minus: repression; for EC50 / fold induction at 5 µM: EcRE luciferase reporter; for Cell-based FXR transactivation Fold changes by 5 μM compound / fold induction at 5 µM: 5 μM compound. Here is the method:
COS-7 cells were cotransfected with plasmids encoding full length FXR.
For transient transfection assay, COS-7 cells were maintained in DMEM containing 10% fetal bovine serum and were transiently transfected using Lipofectamine 2000 (Invitrogen). Before 24 h of transfection, 24-well plates were plated. The cells were co-transfected with plasmids encoding full-length FXR and the cognate luciferase reporter EcRE-Luc. Ligands were added 5 hours after transfection. Cells were harvested 24 hours later for the luciferase assays according to the manufacturer's instructions (Dual-Luciferase® Reporter Assay System, Promega). Luciferase activities were normalized to renilla activity co-transfected as an internal control.

The subject of the next assay is db/db mice. As to the kind of experiment: Hepatic triglyceride, liver histology, serum ALT and ALP in high-fat diet fed db/db mice. The format is in vivo, mouse. Particulars: 10 mg/kg once daily for 10 days. As for the experimental part:
Liver tissues fixed in 4% paraformaldehyde in example 5 were performed for H&E staining by standard procedures. Liver tissues fixed in 4% paraformaldehyde were embedded in optimum cutting temperature compound (OCT), and cryosectioned. Frozen liver sections were stained with 0.3% oil red O according to standard procedures.
The triglyceride levels in liver tissues from mice treated with compounds were analyzed using Tissue triglyceride assay kit (Applygen, Beijing, China).
Alkaline Phosphatase (ALP) is a marker of cholestasis. Cholestasis can be suspected when there is an elevation of ALP enzymes. In fact, greater than 90% of patients with bile stasis will have an elevated alkaline phosphatase. […] The aminotransferase is used to evaluate the presence of hepatitis and may be elevated in cholestasis or with common bile duct obstruction. In this example, 8-10 week age db/db mice were fed with high-fat diet and treated with 10 mg/kg of compounds once daily for 10 days as in Example 5. The activities of serum ALP and ALT were analyzed using ALP kit and ALT kit, respectively (Nanjing Jiancheng Engineering Institute, China).

The subject of assay [4] is human breast cancer MCF7 cells. As to the kind of experiment: MTT cell viability assay, MCF-7. Type of assay: cell-based. Particulars: 48 h, read-out: Cell viability as a percentage of the cells treated with DMSO, MCF-7.
From the text: as §1

The test system of assay [5] is human cervical carcinoma Hela cells. As to the kind of experiment: MTT cell viability assay, Hela. The format is cell-based. Particulars: 48 h, read-out: Cell viability as a percentage of the cells treated with DMSO, Hela.
From the text: as §1

Assay [6] deals with T2, FXR ligand binding domain (LBD) (Homo sapiens, UniProt Q96RI1).
T2 construct: made in house
T2 sequence (Q96RI1 262-486 limits assumed): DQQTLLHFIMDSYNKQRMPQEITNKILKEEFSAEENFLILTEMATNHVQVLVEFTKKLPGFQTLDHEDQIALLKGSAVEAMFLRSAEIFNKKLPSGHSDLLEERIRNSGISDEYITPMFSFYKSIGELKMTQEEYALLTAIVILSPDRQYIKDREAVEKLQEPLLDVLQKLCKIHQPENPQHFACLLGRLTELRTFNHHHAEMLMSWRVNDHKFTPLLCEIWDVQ
Put plainly: AlphaScreen assay: FXR LBD recruitment of coregulator peptide motifs (SRC2-3, SRC1-2). Type of assay: biochemical. Here is the method: In search of novel ligands for FXR, we used FXR ligand binding domain (LBD) as a bait to screen chemical libraries based on AlphaScreen biochemical assay, which determines the efficacy of small molecules in influencing binding affinity of FXR with coregulator peptides (see e.g., Jin et al., (2013) Nature communications 4, 1937).
The binding of the cofactor peptide motifs to FXR ligand binding domain (LBD) in response to ligands was determined by AlphaScreen assays using a hexahistidine detection kit from Perkins-Elmer. The FXR LBD protein was purified as described previously (see e.g., Jin et al., (2013) Nature communications 4, 1937). The experiments were conducted with approximately 20-40 nM receptor LBD and 20 nM biotinylated cofactor peptides in the presence of 5 μg/ml donor and acceptor beads in a buffer containing 50 mM MOPS, 50 mM NaF, 0.05 mM CHAPS, and 0.1 mg/ml bovine serum albumin, all adjusted to a pH of 7.4.
On the technique in general: In Alpha technology, singlet oxygen from a donor bead excites a nearby acceptor bead.

Setting [7] is: SRC1-2 peptide, Table 2, read-out: EC50 (μM) of FXR binding by AlphaScreen assay recruit SRC1-2.
Setting [8] is: SRC2-3 peptide, Table 2, read-out: EC50 (μM) of FXR binding by AlphaScreen assay recruit SRC2-3.
Where [9] appears, read: SRC1-2 peptide, Table 1, read-out: EC50 (μM) of FXR binding by AlphaScreen assay recruit SRC1-2.
[10] abbreviates: SRC2-3 peptide, Table 1, read-out: EC50 (μM) of FXR binding by AlphaScreen assay recruit SRC2-3.

SMILES strings stand for the structures. Read-outs that look alike come from different tables or passages of the source. Marks after values point to notes of the source that are not given here.

Turning to `CC1(C)C2CCC1(C)C(OC(=O)c1ccc([N+](=O)[O-])cc1)C2` (centres unmarked) [XD-14, 1,7,7-trimethyl-bicyclo[2.2.1]-heptan-2-yl 4-nitrobenzoate], the viability at 20 µM is 83% in assay [1]; 60 ± 3% in assay [2]; 64 ± 4% in assay [3]; 91 ± 7% in assay [4]; 90 ± 1% in assay [5]. In addition, the viability at 40 µM amounted to 77 ± 1% in assay [1]; 42 ± 3% in assay [2]; 58 ± 4% in assay [3]; 84 ± 2% in assay [4]; 80 ± 5% in assay [5]. Also, the “Cell-based FXR transactivation Fold changes by 5 μM compound” value on full-length FXR (Table 2) was found to be 3. The same compound registered an EC50 at full-length FXR (Table 2) of 1 to 10 µM. Besides, the “Serum ALP (U/L)” value with db/db mice (vehicle 129 ± 15) is recorded as 86 ± 20^a U/L. Further, in the assay with db/db mice (vehicle 377 ± 48, Table 17), the “Serum ALT (U/L)” value was 62 ± 11^c U/L.

Take `Cc1cc(C(=O)OC2CC3CCC2(C)C3(C)C)ccc1F` (centres unmarked) [XD-1, 1,7,7-trimethyl-bicyclo[2.2.1]-heptan-2-yl 4-fluoro-3-methylbenzoate]: the viability at 20 µM in assay [1] is 100 ± 2%; in assay [2], 96 ± 2%; in assay [3] it was 93 ± 2%; in assay [4], 100 ± 2%; in assay [5] it was 100 ± 5%. Moreover, the viability at 40 µM in assay [1] was 62 ± 7%; in assay [2], 62 ± 3%; in assay [3], 42 ± 3%; in assay [4], 65%; in assay [5], 70 ± 3%. In addition, on full-length FXR (Table 2), the “Cell-based FXR transactivation Fold changes by 5 μM compound” value is 5. The EC50 (on full-length FXR (Table 2); in assay [6] (setting [7]); in assay [6] (setting [8])) was 1 to 10 µM throughout.

On to `O=C(OC1CCCCCCC1)C1CCC(O)CC1` (centres unmarked) [XD-19, cyclooctyl 4-hydroxy-cyclohexane-carboxylate], for which, on full-length FXR (Table 2), the “Cell-based FXR transactivation Fold changes by 5 μM compound” value came to 1.5.

As to `CC1(C)C2CCC1(C)C(OC(=O)C1CCC(N)CC1)C2` (centres unmarked) [XD-21, 1,7,7-trimethyl-bicyclo[2.2.1]-heptan-2-yl 4-aminocyclo-hexane-carboxylate], the “Cell-based FXR transactivation Fold changes by 5 μM compound” value on full-length FXR (Table 2) is given as 1.5.

`COc1ccc(OC(=O)C23CC4CC(CC(Cl)(C4)C2)C3)cc1` [Tricyclo-[3.3.1.1^3,7]decane-1-carboxylic acid, 3-chloro-, 4-methoxyphenyl ester] came in with a fold induction at 5 µM on full-length FXR (Table 1) above 10. Besides, the EC50 (at full-length FXR (Table 1); in assay [6] (setting [9]); in assay [6] (setting [10])) was below 1 µM each time.

Turning to `Nc1ccc(C(=O)OC2CC3CCC2C3)cc1` (centres unmarked) [XD-22, bicyclo[2.2.1]-heptan-2-yl 4-aminobenzoate], the viability at 20 µM in assay [1] stood at 100 ± 3%; in assay [2], 89 ± 1%; in assay [3], 100 ± 4%; in assay [4], 100 ± 2%; in assay [5], 100 ± 2%. Also, the viability at 40 µM was determined as 100 ± 8% in assay [1]; 65 ± 4% in assay [2]; 100 ± 4% in assay [3]; 100 ± 1% in assay [4]; 100 ± 4% in assay [5]. Moreover, the “Cell-based FXR transactivation Fold changes by 5 μM compound” value at full-length FXR (Table 2) was 3. The EC50 on full-length FXR (Table 2) is above 1 µM; in assay [6] (setting [7]) it was 1 to 10 µM; in assay [6] (setting [8]), 1 to 10 µM.

On full-length FXR (Table 1), `O=C(Oc1ccc(O)cc1)C12CC3CC(CC(C3)C1)C2` [Tricyclo-[3.3.1.1^3,7]decane-1-carboxylic acid, 4-hydroxy-phenyl ester] registered a fold induction at 5 µM above 10. Also, the EC50 (on full-length FXR (Table 1); in assay [6] (setting [9]); in assay [6] (setting [10])) was below 1 µM each time.

`Nc1cccc(C(=O)OCC23CC4CC(CC(C4)C2)C3)c1` [Tricyclo-[3.3.1.1^3,7]decane-1-methanol, 1-(3-aminobenzoate)] returned a fold induction at 5 µM on full-length FXR (Table 1) above 10. Further, the EC50 (on full-length FXR (Table 1); in assay [6] (setting [9]); in assay [6] (setting [10])) was below 1 µM throughout.

Regarding `O=C(OC1CCC2CCCCC2C1)c1ccc([N+](=O)[O-])cc1` (centres unmarked) [XD-26, decahydro-naphthalen-2-yl 4-nitrobenzoate], the viability at 20 µM in assay [1] came to 100 ± 2%; in assay [2], 100 ± 2%; in assay [3], 86 ± 2%; in assay [4] it was 100 ± 2%; in assay [5], 87%. The viability at 40 µM in assay [1] stood at 100 ± 2%; in assay [2] it was 92 ± 2%; in assay [3], 56 ± 2%; in assay [4] it was 92 ± 2%; in assay [5], 70 ± 2%. Moreover, the “Cell-based FXR transactivation Fold changes by 5 μM compound” value on full-length FXR (Table 2) is given as −2. At full-length FXR (Table 2), this compound displayed an EC50 below 1 µM.

As a reminder, the viability is the share of living cells, or the viability signal relative to a control. Usually EC50 stands for the concentration needed to bring the measured effect to its halfway point. By fold induction is commonly meant the signal under treatment as a multiple of the control signal. Read a low fold induction as a weak induction.
